In patent US20070219154A1, “Methods for preventing and/or treating a cell proliferative disorder” (priority 2005, published 2007):

What was measured:
Type in all cases: cell-based, human
[1] = system: pancreatic cancer cell line MiaPaCa2; test: Soft agar assay, MiaPaCa2
Description: (§1) Cell proliferation was ascertained by soft agar assay. In brief, cells were grown within a matrix of 1.2% soft agar that contained PAR-1 inhibitor at the appropriate concentration. Plates containing cells in the soft agar were incubated at 37° C. for approximately 2 weeks until cell colonies were visible. Cells were then stained by adding 1 mg/ml MTT in PBS and incubating at 37° C. for 1-2 hours. After which the staining solution was removed and plates incubated at 4° C. for 1-2 hours to resolidify agar before scanning.

[2] = system: glioma cancer cell line SF295; test: Soft agar assay, SF295
Description: as §1

glioma cell line T98G = test: Intracellular Ca2+ release (FLIPR) assay, T98G; details: thrombin 0.1-100 nM, FIG. 14
Description: (§2) As detailed below, intracellular Ca^2+ release was measured in various tumor cell lines treated with thrombin. Likewise, intracellular Ca^2+ release was measured in a subset of those tumor cell lines treated with thrombin and PAR-1 inhibitor Formula 2. In brief, cells were plated into a 96-well plate at a density of 4×10^4 cells per well and allowed to attach overnight at 37° C. prior to loading with Fluo-4AM. Cells were then incubated at 37° C. for 60 minutes. After washing the cells, thrombin as well as the appropriate concentration of PAR-1 inhibitor Formula 2 was added and cells incubated at 37° C. for 30 minutes prior to taking fluorescence readings.

glioma cell line SF295 = test: Intracellular Ca2+ release (FLIPR) assay, SF295; details: thrombin 0.1-100 nM, FIG. 14
Description: as §2

glioma cell line SNB19 = test: Intracellular Ca2+ release (FLIPR) assay, SNB19; details: thrombin 0.1-100 nM, FIG. 14
Description: as §2

[3] = system: pancreatic cancer cell line MiaPaCa2; test: Intracellular Ca2+ release (FLIPR) assay, MiaPaCa2; details: thrombin 0.1-100 nM, FIG. 14
Description: as §2

[4] = system: pancreatic cancer cell line MiaPaCa2; test: 14C-thymidine incorporation assay, MiaPaCa2; details: 48 hours
Description: (§3) Cell growth proliferation was ascertained by measuring ^14C-thymidine incorporation in various cell lines treated with thrombin in the presence or absence of a PAR-1 inhibitor. In brief, 5×10^3 cells per well were seeded in a 96-well plate and incubated at 37° C. for 1 day. The cells were starved with serum-free medium for 1 day prior to treatment with serum-free media containing 0.5 μCi/ml ^14C-thymidine as well as PAR-1 inhibitor and/or thrombin (where applicable). The cells were then incubated at 37° C. for 48 hours prior to reading radioactivity on a beta counter (1450 Microbeta Plus, Liquid Scintillation Counter (Wallac Software, Perkin Elmer) using the program for ^14C counting on 96-well Cytostar-T scintillating microplate (Amersham Pharmacia Biotech, Piscataway, N.J.).

glioma cell line U373 [5] = test: 14C-thymidine incorporation assay, U373; details: thrombin 0.001-1000 nM, 48 hours, FIG. 16
Description: as §3

[6] = system: ovarian cancer cell line SKOV-3; test: Intracellular Ca2+ release (FLIPR) assay, SKOV-3; details: thrombin 0.1-100 nM, FIG. 14
Description: as §2

[7] = system: pancreatic cancer cell line Panc1; test: Calcein AM assay, Panc1; details: 3 days, FIG. 18
Description: (§4) Viability of cells was ascertained using the LIVE/DEAD Viability/Cytotoxicity calcein AM assay [Molecular Probes, technical bulletin MP03224] in the pancreatic cell line MiaPaCa2 and the pancreatic cancer cell line Panc1 following treatment with thrombin, or PAR-1 inhibitor in the presence or absence of thrombin (at a concentration of 10 nM). Calcein AM is a cell-permeant nonflouroescent molecule which is cleaved by esterases found within live cells to create the intensely fluorescent calcein. The polyanionic dye calcein is retained within live cells, producing an intense uniform green fluorescence which can be measured by a fluorescent multiwell plate reader to determine the actual number of live cells in each well. In brief, 1×10^4 cells per well were plated into a 96-well plate and allowed to attach overnight at 37° C. prior to treatment with serum-free media containing 10 nM thrombin as well as the appropriate concentration of PAR-1 inhibitor Formula 2 (5×10^−9; 1×10^−8; 5×10^−8; 1×10^−7; 5×10^−7; 1×10^−6; 5×10^−6; or 1×10^−5 M). Cells were then incubated at 37° C. for 3 days prior to adding Calcein AM reagent and reading fluorescence.

glioma cell line U118MG = test: Intracellular Ca2+ release (FLIPR) assay, U118MG; details: thrombin 0.1-100 nM, FIG. 14
Description: as §2

[8] = system: pancreatic cell line MiaPaCa2; test: Calcein AM assay, MiaPaCa2; details: 3 days, FIG. 18
Description: as §4

glioma cell line U373 [9] = test: Intracellular Ca2+ release (FLIPR) assay, U373; details: thrombin 0.1-100 nM, FIG. 14
Description: as §2

[10] = system: prostate cancer cell line PC-3; test: Intracellular Ca2+ release (FLIPR) assay, PC-3; details: thrombin 0.1-100 nM, FIG. 14
Description: as §2

CCOC(=O)N[C@@H]1CC[C@@H]2[C@@H](C1)C[C@H]1C(=O)O[C@H](C)[C@H]1[C@H]2/C=C/c1ccc(-c2ccccc2C#N)cn1 [Formula 3] was tested, and the “inhibition of cell proliferation (soft agar assay)” value ([1]; 0-10,000 nM, dose-dependent manner) was “inhibited”, the IC50 ([1]; Homo sapiens, MIA PaCa-2, 336 h, approximately 2 weeks, FIG. 20, read-out: IC50, cell proliferation (soft agar assay)) was 5.2 µM and the anti-proliferative effects ([1]; at higher doses) was “modest”. For the same compound, the “inhibition of cell proliferation (soft agar assay)” value ([2]; 0-30,000 nM, dose-dependent manner) was “inhibited”, the IC50 ([2]; Homo sapiens, SF-295, 336 h, approximately 2 weeks, FIG. 21, read-out: IC50, cell proliferation (soft agar assay)) was 6.1 µM and the anti-proliferative effects ([2]; at higher doses) was “modest”.

For thrombin, the “intracellular Ca2+ release stimulated by thrombin” value (glioma cell line T98G) was “stimulates”, the “intracellular Ca2+ release stimulated by thrombin” value (glioma cell line SF295) was “stimulates” and the “intracellular Ca2+ release stimulated by thrombin” value (glioma cell line SNB19) was “stimulates”. The “intracellular Ca2+ release stimulated by thrombin” value [3] was “stimulates”, the EC50 ([4]; read-out: EC50 of thrombin, cell proliferation (14C-thymidine incorporation)) was 0.014 nM and the “thrombin-induced cell proliferation (14C-thymidine incorporation)” value ([4]; thrombin 10^-4 to 10^2 nM, FIG. 17) was “dose-dependent”. The “thrombin-induced cell proliferation (14C-thymidine incorporation)” value (glioma cell line U373 [5]) was “dose-dependent”, the “intracellular Ca2+ release stimulated by thrombin” value [6] was “stimulates” and the “thrombin-induced cell proliferation (calcein AM)” value [7] was “minimal”. The “intracellular Ca2+ release stimulated by thrombin” value (glioma cell line U118MG) was “stimulates”, the “thrombin-induced cell proliferation (calcein AM)” value [8] was “dose-dependent” and the “intracellular Ca2+ release stimulated by thrombin” value (glioma cell line U373 [9]) was “stimulates”. For the same compound, the “intracellular Ca2+ release stimulated by thrombin” value [10] was “stimulates”.
